Each molecule was assayed against T1, CRF1 receptors (Homo sapiens, UniProt P34998) (assay: CRF1 receptor radioligand binding assay ([125I]-oCRF competition, IMR-32 cell membranes)). Conditions: IMR-32 cell membranes, [125I]-oCRF 100 pM; read-out: Ki (CRF-1R).
T1 construct: endogenous in cells; host or cells: IMR-32 cells, transformed with 2.5 µM 5'-bromo-2'-deoxyuridine for 10 days; membrane preparation
T1 sequence (P34998 24-415): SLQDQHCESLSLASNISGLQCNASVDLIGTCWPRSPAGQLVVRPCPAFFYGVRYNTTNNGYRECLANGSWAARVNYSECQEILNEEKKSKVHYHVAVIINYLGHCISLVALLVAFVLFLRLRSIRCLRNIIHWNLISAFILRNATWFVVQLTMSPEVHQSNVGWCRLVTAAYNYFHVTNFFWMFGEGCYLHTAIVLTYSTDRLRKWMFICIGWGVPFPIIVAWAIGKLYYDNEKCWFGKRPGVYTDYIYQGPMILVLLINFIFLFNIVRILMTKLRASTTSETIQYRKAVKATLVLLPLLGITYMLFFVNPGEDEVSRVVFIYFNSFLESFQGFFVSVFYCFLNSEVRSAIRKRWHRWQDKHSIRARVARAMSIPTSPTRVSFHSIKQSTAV
Method in brief: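 Buffer: Tris pH 7.2 with MgCl2, BSA, Triton X-100, aprotinin, leupeptin; reaction stopped with ice-cold wash and filtered. Nonspecific binding set with 10 μM oCRF.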

Ki, < 10000 nM:
CCCN(Cc1c(C(F)(F)F)nc2n(-c3ccc(Cl)cc3Cl)c3ccccc3n12)CC1CCC1 [Example 186, Cyclobutylmethyl-[8-(2,4-dichloro-phenyl)-2-trifluoromethyl-8H-1,3a,8-triaza-cyclopenta[α]inden-3-ylmethyl]-propyl-amine]

Ki, < 100 nM:
Cc1cc(C)c(-n2c3ncccc3n3c(CN(CCC(F)(F)F)CC4CC4)c(C(F)(F)F)nc23)c(C)c1 [Example 213, Cyclopropylmethyl-[2-trifluoromethyl-8-(2,4,6-trimethyl-phenyl)-8H-1,3a,7,8-tetraaza-cyclopenta[α]inden-3-ylmethyl]-(3,3,3-trifluoro-propyl)-amine]
CCCN(CCOC)Cc1c(C(F)(F)F)nc2n(-c3c(C)cc(C)cc3C)c(Cl)cn12 [Example 342, [6-Chloro-2-trifluoromethyl-7-(2,4,6-trimethyl-phenyl)-7H-imidazo[1,2-a]imidazol-3-ylmethyl]-(2-methoxy-ethyl)-propyl-amine]
CC(C)c1ccc(-n2c3ccccc3n3c(CN(CC4CC4)CC(F)(F)F)c(C(F)(F)F)nc23)c(Br)c1 [Example 188, [8-(2-Bromo-4-isopropyl-phenyl)-2-trifluoromethyl-8H-1,3a,8-triaza-cyclopenta[α]inden-3-ylmethyl]-cyclopropylmethyl-(2,2,2-trifluoro-ethyl)-amine]
Cc1cc(C)c(-n2c(Cl)cn3c(CN(CCC(F)(F)F)Cc4ccc(F)cc4)c(C(F)(F)F)nc23)c(C)c1 [Example 333]
CCCN(CC1CC1)C(=O)c1c(CC)nc2n(-c3c(C)cc(C)cc3C)c3ccc(F)cc3n12 [Example 144, 2-Ethyl-5-fluoro-8-(2,4,6-trimethyl-phenyl)-8H-1,3a,8-triaza-cyclopenta[a]indene-3-carboxylic acid cyclopropylmethyl-propyl-amide]
CCCN(Cc1c(C(F)(F)F)nc2n(-c3c(C)cc(C)cc3C)c3ccccc3n12)CC1CCC1 [Example 153, Cyclobutylmethyl-propyl-[2-trifluoromethyl-8-(2,4,6-trimethyl-phenyl)-8H-1,3a,8-triaza-cyclopenta[α]inden-3-ylmethyl]-amine]
CCCCN(CC)Cc1c(C(F)(F)F)nc2n(-c3c(C)cc(C)cc3C)c(Cl)cn12 [Example 346, Butyl-[6-chloro-2-trifluoromethyl-7-(2,4,6-trimethyl-phenyl)-7H-imidazo[1,2-a]imidazol-3-ylmethyl]-ethyl-amine]
CCc1nc2n(-c3c(C)cc(C)cc3C)c(Cl)cn2c1C(=O)N1CC(C)CC(C)C1 (stereo not drawn) [Example 300]
C=CCN(CCC)Cc1c(CC)nc2n(-c3c(C)cc(C)cc3C)c3ncccc3n12 [Example 249, Allyl-[2-ethyl-8-(2,4,6-trimethyl-phenyl)-8H-1,3a,7,8-tetraaza-cyclopenta[α]inden-3-ylmethyl]-propyl-amine]
CCCN(Cc1c(C)nc2n(-c3c(C)cc(C)cc3C)c(Cl)cn12)CC1CC1 [Example 284, [6-Chloro-2-methyl-7-(2,4,6-trimethyl-phenyl)-7H-imidazo[1,2-a]imidazol-3-ylmethyl]-cyclopropylmethyl-propyl-amine]
Cc1cc(C)c(N2CCCn3c2nc(C(F)(F)F)c3CN(CCC(F)(F)F)Cc2ccc(Cl)cc2)c(C)c1 [Example 93, (4-Chloro-benzyl)-[2-trifluoromethyl-8-(2,4,6-trimethyl-phenyl)-5,6,7,8-tetrahydro-imidazo[1,2-a]pyrimidin-3-ylmethyl]-(3,3,3-trifluoro-propyl)-amine]

Ki, < 1000 nM:
CCc1nc2n(-c3c(C)cc(C)cc3C)c(Cl)cn2c1C(=O)N(CC)Cc1ccncc1 [Example 297, 6-Chloro-2-ethyl-7-(2,4,6-trimethylphenyl)-7H-imidazo[1,2-a]imidazole-3-carboxylic acid N-ethyl-N-(pyridin-4-yl)methylamide]
CCCCN(CC)Cc1c(C(F)(F)F)nc2n1CCCN2c1c(C)cc(C)cc1Cl [Example 108, Butyl-[8-(2-chloro-4,6-dimethyl-phenyl)-2-trifluoromethyl-5,6,7,8-tetrahydro-imidazo[1,2-a]pyrimidin-3-ylmethyl]-ethyl-amine]
Cc1cc(C)c(-n2c(Cl)cn3c(CN(CCc4ccccc4)CC(F)(F)F)c(C(F)(F)F)nc23)c(C)c1 [Example 324, [6-Chloro-2-trifluoromethyl-7-(2,4,6-trimethyl-phenyl)-7H-imidazo[1,2-a]imidazol-3-ylmethyl]-phenethyl-(2,2,2-trifluoro-ethyl)-amine]
Cc1cc(C)c(N2CCCn3c2nc(C(F)(F)F)c3CN(CCc2ccccc2)CCC(F)(F)F)c(Cl)c1 [Example 118, [8-(2-Chloro-4,6-dimethyl-phenyl)-2-trifluoromethyl-5,6,7,8-tetrahydro-imidazo[1,2-a]pyrimidin-3-ylmethyl]-phenethyl-(3,3,3-trifluoro-propyl)-amine]
CCCN(CCc1ccccc1)C(=O)c1c(CC)nc2n1CCN2c1c(C)cc(C)cc1C [Example 13, 2-Ethyl-7-(2,4,6-trimethyl-phenyl)-6,7-dihydro-5H-imidazo[1,2-a]imidazole-3-carboxylic acid phenethyl-propyl-amide]
CCc1nc2n(c1C(=O)N(CCC(F)(F)F)Cc1ccc(Cl)cc1)CCN2c1c(C)cc(C)cc1C [Example 14, 2-Ethyl-7-(2,4,6-trimethyl-phenyl)-6,7-dihydro-5H-imidazo[1,2-a]imidazole-3-carboxylic acid (4-chloro-benzyl)-(3,3,3-trifluoro-propyl)-amide]
CCCCN(CC)Cc1c(C(F)(F)F)nc2n(-c3c(C)cc(C)cc3C)c3ccccc3n12 [Example 170, Butyl-ethyl-[2-trifluoromethyl-8-(2,4,6-trimethyl-phenyl)-8H-1,3a,8-triaza-cyclopenta[α]inden-3-ylmethyl]-amine]
Cc1cc(C)c(N2CCCn3c2nc(C(F)(F)F)c3CN2CCC(C)CC2)c(C)c1 [Example 64, 3-(4-Methyl-piperidin-1-ylmethyl)-2-trifluoromethyl-8-(2,4,6-trimethyl-phenyl)-5,6,7,8-tetrahydro-imidazo[1,2-a]pyrimidine]
FC(F)(F)c1nc2n(-c3ccc(Cl)cc3Cl)c3ccccc3n2c1CN(CC1CC1)CC1CC1 [Example 177, Bis-cyclopropylmethyl-[8-(2,4-dichloro-phenyl)-2-trifluoromethyl-8H-1,3a,8-triaza-cyclopenta[α]inden-3-ylmethyl]-amine]
C=CCN(CC=C)Cc1c(C(F)(F)F)nc2n(-c3ccc(C(C)C)cc3Br)c3ccccc3n12 [Example 192, Diallyl-[8-(2-bromo-4-isopropyl-phenyl)-2-trifluoromethyl-8H-1,3a,8-triaza-cyclopenta[α]inden-3-ylmethyl]-amine]
CCN(CCc1ccccc1)Cc1c(C(F)(F)F)nc2n1CCCN2c1c(C)cc(C)cc1Cl [Example 120, [8-(2-Chloro-4,6-dimethyl-phenyl)-2-trifluoromethyl-5,6,7,8-tetrahydro-imidazo[1,2-a]pyrimidin-3-ylmethyl]-ethyl-phenethyl-amine]
CCN(Cc1c(C(F)(F)F)nc2n(-c3c(C)cc(C)cc3C)c3ncccc3n12)CC1CC1 [Example 223, Cyclopropylmethyl-ethyl-[2-trifluoromethyl-8-(2,4,6-trimethyl-phenyl)-8H-1,3a,7,8-tetraaza-cyclopenta[α]inden-3-ylmethyl]-amine]

Ki, < 10 nM:
Cc1cc(C)c(N2CCCn3c2nc(C(F)(F)F)c3CN(CC2CC2)CC(F)(F)F)c(C)c1 [Example 73, Cyclopropylmethyl-(2,2,2-trifluoro-ethyl)-[2-trifluoromethyl-8-(2,4,6-trimethyl-phenyl)-5,6,7,8-tetrahydro-imidazo[1,2-a]pyrimidin-3-ylmethyl]-amine]
Cc1cc(C)c(-n2c(Cl)cn3c(CN(CC4CCC4)CC(F)(F)F)c(C(F)(F)F)nc23)c(C)c1 [Example 320, [6-Chloro-2-trifluoromethyl-7-(2,4,6-trimethyl-phenyl)-7H-imidazo[1,2-a]imidazol-3-ylmethyl]-cyclobutylmethyl-(2,2,2-trifluoro-ethyl)-amine]
CCCN(CCC(F)(F)F)Cc1c(C(F)(F)F)nc2n(-c3c(C)cc(C)cc3C)c(Cl)cn12 [Example 321, [6-Chloro-2-trifluoromethyl-7-(2,4,6-trimethyl-phenyl)-7H-imidazo[1,2-a]imidazol-3-ylmethyl]-propyl-(3,3,3-trifluoro-propyl)-amine]
Cc1cc(C)c(-n2c(Cl)cn3c(CN(CC4CC4)CC(F)(F)F)c(C(F)(F)F)nc23)c(C)c1 [Example 304, [6-Chloro-2-trifluoromethyl-7-(2,4,6-trimethyl-phenyl)-7H-imidazo[1,2-a]imidazol-3-ylmethyl]-cyclopropylmethyl-(2,2,2-trifluoro-ethyl)-amine]
C=CCN(CCC)Cc1c(C(F)(F)F)nc2n(-c3c(C)cc(C)cc3C)c(Cl)cn12 [Example 339, Allyl-[6-chloro-2-trifluoromethyl-7-(2,4,6-trimethyl-phenyl)-7H-imidazo[1,2-a]imidazol-3-ylmethyl]-propyl-amine]
CCc1nc2n(-c3ccc(Cl)cc3Cl)c(Cl)cn2c1C(=O)N(CC1CC1)CC(F)(F)F [Example 286, 6-Chloro-2-ethyl-7-(2,4-dichlorophenyl)-7H-imidazo[1,2-a]imidazole-3-carboxylic acid N-cyclopropylmethyl-N-(2,2,2-trifluoroethyl)amide]

Reference: patent publication US7125990B2, “Imidazolyl derivatives as corticotropin releasing factor inhibitors” (Bristol-Myers Squibb COmpany, priority 2001, dated 2006)
